Earlier results, collected in US8535946B2, “Biomarker to measure drug efficacy in enteropathic disease” (The Board of Trustees of the Leland Stanford Junior …, priority 2007, dated 2013).

Conditions: humans

For `Cc1ncc2n1-c1ccc(Cl)cc1C(c1ccccc1F)=NC2` [midazolam], which “dose excreted unchanged in the urine” value is on record?
The value was “less than 1%”.
